Test results from patent US20180153830A1, “SELECTIVE INHIBITORS OF UNDIFFERENTIATED CELLS” (Yissum Research Development Company of the Hebrew …, priority 2012, published 2018).

Legend:
[1] = hPSC viability after SCD1 inhibitors with or without oleic acid; assay type: cell-based, human; details: human, human pluripotent stem cells (hPSCs), 75 nM, read-out: decrease in viability of hPSCs
Protocol: (§1) In order to determine whether hPSC viability indeed depends on functional SCD1 activity, hPSCs were exposed to 75 nM of the specific SCD1 inhibitors A939572 and CAY-10566 for 48 hours. Some samples were supplemented with 100 μM oleic acid in order to evaluate the effect of exogenous supplementation of oleic acid (a product of SCD1 activity) on cell death.

hPSCs = experiment: as above; assay type: cell-based, human; details: 75 nM inhibitor, 100 μM oleic acid, 48 hours
Protocol: as §1

[2] = test system: OCT4-expressing CSES2-SO2/3 cells; experiment: Fluorescence microscopy imaging of OCT4 in mixed cell populations; assay type: cell-based, human; details: 48 hours, mixed cell population
Protocol: High content imaging of CSES2-SO2/3 fluorescent cells (mCherry+ or EGFP+) was performed in black clear-bottom 384-well assay plates (Falcon BD), using the Opera high-content screen imaging platform (PerkinElmer). Otherwise, light and fluorescence imaging of all cells was performed in 24-well, 6-well or 10 cm CELLSTAR® plates (Greiner Bio-One), using an Olympus CellR imaging station. Light imaging of developing mouse embryos was performed in 35 mm culture dishes (Falcon BD), using an Olympus IX70 microscope.
(§2) Mixed cell populations were cultured in 6-well plates and exposed to PluriSIn #1 for 48 hours. The cells were then analyzed by FACS analysis, using staining for the pluripotent marker TRA-1-60, and by fluorescence microscopy imaging of OCT4, as described in the Materials and Methods section.

[3] = test system: undifferentiated stem-like glioma cells (SLGCs); experiment: Methylene blue viability, undifferentiated SLGCs; assay type: cell-based; details: up to 100 μM, 72 hours, 2% fetal bovine serum
Protocol: (§3) For the high-throughput screens, relative cell number was determined using a CellTiter-Glo® Luminescent Cell Viability Assay as described hereinabove. Otherwise, relative cell numbers were determined by fixating the cells with 0.5% glutardialdehyde and staining with methylene blue dissolved in 0.1 M boric acid (pH 8.5). Color extraction was performed using 0.1 M hydrochloric acid, and the staining (which is proportional to cell number) was quantified by measuring absorbance at a wavelength of 650 nm.
(§4) In a second experiment, undifferentiated stem-like glioma cells (SLGCs) were compared with SLGCs differentiated by monolayer adhesion and exposure to 1 μM retinoic acid for one week, in accordance with procedures described by Campos et al. [Clinical Cancer Research 16:2715-2728 (2010)]. Differentiation of SLGCs is associated with a reduction in tumorigenicity [Campos et al., Clinical Cancer Research 16:2715-2728 (2010)].
(§5) The differentiated and undifferentiated cells were exposed to PluriSIn #1 at concentrations of up to 100 μM for 72 hours under low (2%) fetal bovine serum conditions. Their viability was then measured using a methylene blue viability assay, as described hereinabove.

differentiated SLGCs = experiment: Methylene blue viability, differentiated SLGCs; assay type: cell-based; details: up to 100 μM, 72 hours, 2% fetal bovine serum
Protocol: as §3, §4, §5

H9 stem cells = experiment: Elimination of undifferentiated cells cultured in 6-well plates; assay type: cell-based, human; details: 20 μM
Description: The PluriSIns were first tested in various culture conditions and exposure durations.

[4] = test system: normal (immortalized) BJ fibroblasts; experiment: Methylene blue viability, immortalized BJ fibroblasts; assay type: cell-based, human; details: up to 100 μM, 72 hours, 2% fetal bovine serum
Protocol: as §3
(§6) In one experiment, immortalized BJ fibroblasts served as differentiated cells and were compared with BJ fibroblasts induced to undergo cellular transformation, which served as their undifferentiated cancerous counterparts. […]
as §5

[5] = test system: non-pluripotent cell types (BJ-fibroblasts, HeLa, HepG2 and Kelly cells); experiment: Methylene blue viability of non-pluripotent cells in embryonic stem cell medium; assay type: cell-based, human; details: 20 μM, 72 hours
Protocol: as §3
In order to ascertain that the selectivity of PluriSin cytotoxicity is cell type-dependent rather than cell medium-dependent, four non-pluripotent cell types (BJ-fibroblasts, HeLa, HepG2 and Kelly cells) were cultured in human embryonic stem cell medium and exposed to PluriSIn #1 for 72 hours. Cell viability was then determined by a methylene blue assay, as described hereinabove.

[6] = test system: transformed BJ fibroblasts; experiment: Methylene blue viability, transformed BJ fibroblasts; assay type: cell-based, human; details: up to 100 μM, 72 hours, 2% fetal bovine serum
Protocol: as §3, §6, §5

[7] = test system: pluripotent cells in mixed cell population (differentiated and undifferentiated CSES2-SO2/3 cells); experiment: FACS analysis of TRA-1-60 in mixed cell populations; assay type: cell-based, human; details: 48 hours, 6-well plates
Protocol: For quantification of remaining undifferentiated cells after treatment, cells were treated with 20 μM PluriSIn #1 (isonicotinic acid N′-phenylhydrazide) for 48 hours or 72 hours, dissociated using TrypLE™ Select (Invitrogen), and washed with PBS supplemented with 10% FBS and 0.05% sodium azide. Dissociated cells were suspended to a final concentration of 10^6 cells/ml. Cells were incubated on ice with TRA1-60-PE antibody (1:40, BD Biosciences), washed and analyzed using LSR II FACS (BD Biosciences) with FCS Express software (De Novo Software, Los Angeles, Calif.).
as §2

SMILES | cytotoxicity at 48 h, 75 nM [1] | rescue from SCD1 inhibitor-induced cell death by oleic acid (hPSCs) | elimination of OCT4-expressing cells [2] | cytotoxicity towards undifferentiated SLGC [3] | effect on differentiated SLGCs (differentiated SLGCs) | exposure required for complete elimination of undifferentiated cells (H9 stem cells) | effect on normal (immortalized) BJ fibroblasts [4] | viability of non-pluripotent cells cultured in embryonic stem cell medium [5] | cytotoxicity towards transformed BJ fibroblasts [6] | pluripotent cells eliminated from culture (TRA-1-60 FACS) [7]
CNC(=O)c1cccc(NC(=O)N2CCC(Oc3ccccc3Cl)CC2)c1 [A939572, 4-(2-chlorophenoxy)-N-(3-(methylcarbamoyl)-phenyl)piperidine-1-carboxamide, reference compound] | > 80% | completely rescued |  |  |  |  |  |  |  | 
O=C(NNc1ccccc1)c1ccncc1 [PluriSIn #1, isonicotinic acid N′-phenylhydrazide] |  |  | eliminated almost all OCT4-expressing cells | highly cytotoxic | no apparent effect | 48 h | little effect | no effect | highly cytotoxic | over 99%
